From patent US20100266503A1, “Breast Cancer Methods, Medicaments and Agents” (priority 2007, published 2010)

Tests used:
[1] = system: notch intracellular domain in MCF-7 cells; test: Staining for notch intracellular domain expression (surrogate marker for GS activity); type: cell-based; settings: 48 hours; Gefitinib 15 μM, U0126 10 μM, PD98059 10 μM
From the text: (§1) (A) GS activity as measured by a fluorescent assay in MCF7 breast cancer cell lines and MCF10A normal cell lines, with and without treatment with the ERK1/2 inhibitor U0126. (B) Sections of MCF7 breast cancer cell lines stained for notch intracellular domain expression (as a surrogate marker for GS activity). Shown are sections of cells untreated (NO), and cells treated with oestrogen (E2), faslodex (FAS), Gefitinib (Gef), GSI1, and the ERK1/2 inhibitors U0126 (U) and. PD98059 (PD). (C) Sections of MCF10A normal cell lines stained for notch intracellular domain expression. Shown are sections of cells untreated (NO), and cells treated with Gefitinib (Gef) and PD98059 (PD).
(§2) Cancer and normal cell lines were treated with oestrogen (E2), faslodex (FAS), Gefitinib (Gef 15 μM), GSI1, and the ERK1/2 inhibitors U0126 (U) (10 μM) and PD98059 (PD) (10 μM) for 48 hours and a fluorescent assay performed to measure GS activity. The figures show relative fluorescence therefore the amount of fluorescence in the treated cells relative to the untreated minus background (these figures are corrected for background).

[2] = system: GS activity in MCF10A normal cell lines; settings: 10 μM, 48 hours
From the text: as §1, §2

[3] = system: GS activity in MCF7 breast cancer cell lines
From the text: as §1, §2

[4] = system: GS Activity in MDA-MB 231 cell line; settings: 48 h vs vehicle control
Procedure: GS Activity Assay was performed on MDA-MB 231 cell line. Cells were treated with a vehicle control and a U0126 inhibitor for 48 h.

COc1cccc(-c2cc(=O)c3ccccc3o2)c1N [PD98059]
notch intracellular domain expression localized to the nucleus compared to untreated cells [1]: appear to increase notch intracellular domain expression localized to the nucleus

C[C@]12CC[C@@H]3c4ccc(O)cc4C[C@@H](CCCCCCCCC[S+]([O-])CCCC(F)(F)C(F)(F)F)[C@H]3[C@@H]1CC[C@@H]2O (some centres unmarked) [Faslodex]
notch intracellular domain expression localized to the nucleus compared to untreated cells [1]: all but the Faslodex appear to increase notch intracellular domain expression

N#CC(=C(/N)Sc1ccccc1N)/C(C#N)=C(\N)Sc1ccccc1N [U0126]
increase in GS activity (relative fluorescence vs untreated) [2]: approximately 4 fold | increase in GS activity (relative fluorescence vs untreated) ([3]; 10 μM, 48 hours): 6-12 fold | increase in GS activity ([3]; breast cancer cells, summary statement): 9 fold | GS Activity [4]: dose dependant increase of GS Activity | notch intracellular domain expression localized to the nucleus compared to untreated cells [1]: appear to increase notch intracellular domain expression localized to the nucleus

COc1cc2ncnc(Nc3ccc(F)c(Cl)c3)c2cc1OCCCN1CCOCC1 [Gefitinib]
notch intracellular domain expression localized to the nucleus compared to untreated cells [1]: appear to increase notch intracellular domain expression localized to the nucleus
